Reference: publication PMC11649784, “Re-design and evaluation of diclofenac-based carborane-substituted prodrugs and their anti-cancer potential” (Scientific Reports, 2024)

Tests used:
HCT116 cells = test: MTT viability assay, HCT116; assay type: cell-based, human; settings: 72 h, mean±SD; read-out: IC50 [μM] (n = 3) HCT116 MTT
Description: In a preliminary test, the stability of all compounds dissolved in the cell medium (c = 100 μM, T = [drawing 47] ) for 72 h was validated by HPLC (see Supporting Information). Cell lines were incubated with the respective compounds in a concentration range of 1.56–100 μM for 72 h, and cell viability was measured using 3-(4,5-dimethylthiazol-2-yl)-2,5-diphenyltetrazolium bromide (MTT) and crystal violet (CV) assays. […] As MTT tests gave inconsistent results, possibly due to interference of the compound with mitochondrial respiration, for the further evaluation only the CV results are considered[97],[98].
(§1) The biological study was performed on a murine colon adenocarcinoma cell line (MC38), two human colorectal carcinoma cell lines (HCT116 and HT29), and a human fetal lung fibroblast cell line (MRC-5). All cell lines are commercially available and were obtained from the American Type Culture Collection (ATCC). The human cell lines were kept in HEPES-buffered RPMI-1640 medium supplemented with 10 [drawing 141] heat-inactivated FCS, 2 mM L-glutamine, 0.01 [drawing 142] sodium pyruvate, penicillin (100 units mL^−1), and, streptomycin ( [drawing 143] mL^-1). The MC38 cell line was maintained in DMEM medium additionally supplemented with 1 [drawing 144] non-essential amino acids. Cells were grown at [drawing 145] in a humidified atmosphere with 5 [drawing 146] [drawing 147] . Peritoneal exudate cells (PECs) were isolated from healthy C57BL/6 mice (males, n = 3, 3 months old, weight 22–25 g) by performing an ice-cold PBS peritoneal lavage. Mice were sacrificed by cervical dislocation. Cells were cultivated for 4 h when nonadherent population was removed by washing in PBS, and additionally cultivated overnight in HEPES-buffered RPMI-1640 medium supplemented with 5 [drawing 148] heat-inactivated FCS before treatment with experimental drugs. Animal handling and protocol for isolation of PECs were performed according to European Union rules, and the ARRIVE guidelines 2.0.
For the viability tests, MC38, HCT116, and HT29 cells were seeded in 96-well plates at a density of 2 [drawing 149] 103, 5 [drawing 150] 103, and 6 [drawing 151] 10^3 cells/well, respectively. To determine whether the drug affected the viability of healthy, non-malignant cells, MRC-5 and PECs were seeded in 96-well plates at a density of 8 [drawing 152] 103 and 2 [drawing 153] 10^5 cells/well, respectively. For the flow cytometric analyses, MC38 cells were seeded in 6-well plates at 5 [drawing 154] 10^4 cells/well. For morphological assessment of nuclei and the detection of autophagy, MC38 cells were seeded in 2-well chamber slides at 1.5 [drawing 155] 10^4 cells/well.
After 72 h, cell viability was determined using MTT and CV tests. First, the supernatant from the wells was discarded and the cells were incubated with an MTT solution (0.5 mg mL^−1). After half an hour, the purple formazan crystals formed were dissolved in DMSO. For CV staining of the cells, the cells were fixed with 4 [drawing 157] PFA for 10 min and then stained with a 0.02 [drawing 158] CV solution for 15 min, all at room temperature (RT). The cells were then washed with tap water, air-dried and the dye was dissolved in 33 [drawing 159] acetic acid. For both viability tests, the absorbance of the developed colors was measured using an automated microplate reader at 570 nm with a reference wavelength of 670 nm. The results were expressed as a percentage of the control values of the untreated cells, which were arbitrarily set at 100 [drawing 160] . IC50 values, defined as 50 [drawing 161] inhibitory concentration, were calculated using a four-parameter logistic function and presented as mean±SD. All biological experiments were performed in triplicates. To evaluate the nature of the detected autophagy, a combined treatment with compound 3 and the autophagy inhibitors chloroquine (Chlq) and 3-methyladenine (3-MA) was carried out. […] After 72 h, cell viability was determined by CV assay.

[1] = tested on: human fetal lung fibroblast cell line MRC-5; test: Viability of non-malignant MRC-5 cells; assay type: cell-based; settings: column head not given
Description: as §1, with “Animal handling and protocol for isolation of PECs were performed according to European Union rules, and the ARRIVE guidelines 2.0.” left out
After 72 h, cell viability was determined using MTT and CV tests. […] For both viability tests, the absorbance of the developed colors was measured using an automated microplate reader at 570 nm with a reference wavelength of 670 nm. The results were expressed as a percentage of the control values of the untreated cells, which were arbitrarily set at 100 [drawing 160] . IC50 values, defined as 50 [drawing 161] inhibitory concentration, were calculated using a four-parameter logistic function and presented as mean±SD. […] To evaluate the nature of the detected autophagy, a combined treatment with compound 3 and the autophagy inhibitors chloroquine (Chlq) and 3-methyladenine (3-MA) was carried out. […] After 72 h, cell viability was determined by CV assay.

MC38 cells [2] = test: AnnV-FITC/PI double staining, flow cytometry; assay type: cell-based, murine; settings: IC50 concentration, 72 h
Description: (§2) For all flow cytometric analyses, MC38 cells were seeded overnight and then treated with the IC50 concentration of compound 3 for 72 h. The cells were harvested, washed, and stained according to the manufacturer’s instructions for each method. To determine whether the compound induces apoptosis, cells were double stained with AnnV-FITC and PI (15 μg mL^–1) for 15 min at RT in the dark. To detect caspase activity, cells were stained with the FITC-conjugated caspase inhibitor ApoStat for 30 min at [drawing 162] . To detect cell proliferation, MC38 cells were stained with CFSE (1 μM) for 10 min at [drawing 163] prior to seeding and then treated as previously described. To detect intracellular production of Reactive oxygen/nitrogen Species (ROS/RNS), MC38 cells were prestained with DHR 123 (1 [drawing 164] M) for 20 min at [drawing 165] , then seeded and exposed to an IC50 concentration of compound 3. After 72 h incubation, all samples were washed, resuspended in PBS and fluorescence intensity was analyzed using a CytoFLEX [drawing 166] flow cytometer (Beckman Coulter, Pasadena, CA, USA), while the data obtained was evaluated using the [drawing 167] software program.

MC38 cells [3] = test: ApoStat caspase activity, flow cytometry; assay type: cell-based, murine; settings: IC50 concentration, 72 h
Description: as §2

MC38 cells [4] = test: PI staining of fixed cells, fluorescence microscopy; assay type: cell-based, murine; settings: IC50 concentration, 72 h
Description: For morphological assessment of cell nuclei, MC38 cells were seeded overnight in 2-well chamber slides and then treated with the IC50 concentration of compound 3 for 72 h. At the end of the incubation period, cells were fixed with 4 [drawing 168] PFA for 15 min at RT. Staining of cells was performed with PI solution (0.1 [drawing 169] Triton X-100, 0.5 M EDTA pH 8, 50 μg mL^− 1 RNase, and 50 [drawing 170] mL^− 1 PI - final concentrations in PBS) for 1–2 min at RT. After washing in PBS, the cells were mounted in a fluorescence microscopy medium (Fluoromount- [drawing 171] , eBioscience, San Diego, CA, USA). The slides were analyzed with a ZeissAxio Observer Z1 inverted fluorescence microscope (Carl Zeiss AG, Oberkochen, Germany) at 400 [drawing 172] magnification. For the detection of autophagosomes, AO staining of cells seeded in 2-well chamber slides was applied. […] The dye was then removed, the cells were rinsed with PBS and immediately evaluated via fluorescence microscopy at 400 [drawing 175] magnification using the Leica DM4 B microscope equipped with a DFC7000 T camera (Leica Microsystems CMS GmbH, Wetzlar, Germany).

[5] = Stability in solution, air and moisture; settings: storage

Substance: 1-[2-(7,8-dicarba-nido-undecaborate)]- [drawing 126] H-indolium-2-amine [compound 3]
- IC50 (HCT116 cells): 6.9 ± 1.5 µM
- Selectivity index (IC50 value of primary vs. cancer cells), MRC-5, second cancer cell line column ([1]; presumably HCT116): 1.5
- Selectivity index (IC50 value of primary vs. cancer cells), MRC-5, third cancer cell line column ([1]; presumably HT29): 0.98
- Selectivity index (IC50 value of primary vs. cancer cells), MRC-5, first cancer cell line column ([1]; presumably MC38): 1.81
- apoptosis (AnnV-FITC/PI), in words (MC38 cells [2]): moderate apoptotic cell accumulation
- total caspase activity vs controls (MC38 cells [3]): no significant change in total caspase activity
- nuclear morphology (PI staining) (MC38 cells [4]): moderate involvement of apoptotic cells
- stability in air and moisture [5]: stable in air and moisture
